Activity calls are given as the source filed them. The rule behind the calls is not given here.
How the values were obtained:
[1] = Molar potency (1/IC50) in the guinea pig ileum divided by its potency in the mouse vas deferens.; type: functional
[2] = biological target: T1, Opioid receptor (Mus musculus) (UniProt P42866+P32300+P33534); test: In vitro relative potency to morphine (IC50, 4.4E-8M) in mouse vas deferens was determined; inactive (potentiates contraction at >/=1.6E-6M); type: functional, tissue-based
[3] = biological target: T1, Opioid receptor (Mus musculus); test: […] relative molar potency represents the morphine ED50 ([…])/compound ED50 using the hotplate procedure in mice; inactive at 140 umol/kg; type: functional
[4] = biological target: Opioid receptors; mu/kappa/delta (Homo sapiens) (UniProt P41145+P41143+P35372); test: In vitro relative potency to morphine (IC50, 6.8E-8M) in guinea pig ileum was determined; inactive (potentiates contraction at >/=5.4E-8M); type: functional, tissue-based; conditions: Cavia porcellus, target entry is the homologue from another species
Opioid receptors; mu/kappa/delta (Homo sapiens), sequence (P35372 whole entry, looked up): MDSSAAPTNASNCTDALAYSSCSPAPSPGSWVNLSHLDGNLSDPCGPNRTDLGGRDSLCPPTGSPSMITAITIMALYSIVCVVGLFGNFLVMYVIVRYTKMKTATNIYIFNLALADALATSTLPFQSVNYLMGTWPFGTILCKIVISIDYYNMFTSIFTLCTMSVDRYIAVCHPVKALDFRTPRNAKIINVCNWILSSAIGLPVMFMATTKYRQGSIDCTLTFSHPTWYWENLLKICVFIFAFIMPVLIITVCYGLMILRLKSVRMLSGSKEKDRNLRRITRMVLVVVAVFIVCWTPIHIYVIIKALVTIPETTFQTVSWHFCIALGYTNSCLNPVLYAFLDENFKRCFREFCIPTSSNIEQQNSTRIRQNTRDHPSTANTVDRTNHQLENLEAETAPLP
Opioid receptors; mu/kappa/delta (Homo sapiens), sequence (P41143 whole entry, looked up): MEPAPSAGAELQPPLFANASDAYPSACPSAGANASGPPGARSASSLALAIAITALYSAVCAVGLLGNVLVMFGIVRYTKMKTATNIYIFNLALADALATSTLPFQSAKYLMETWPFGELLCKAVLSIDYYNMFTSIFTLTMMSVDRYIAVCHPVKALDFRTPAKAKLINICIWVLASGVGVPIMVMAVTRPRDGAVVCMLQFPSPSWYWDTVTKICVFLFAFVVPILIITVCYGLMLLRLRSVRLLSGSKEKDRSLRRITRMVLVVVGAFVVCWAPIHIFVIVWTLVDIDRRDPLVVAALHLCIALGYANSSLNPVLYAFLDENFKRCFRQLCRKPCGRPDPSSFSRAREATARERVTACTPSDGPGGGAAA
Opioid receptors; mu/kappa/delta (Homo sapiens), sequence (P41145 whole entry, looked up): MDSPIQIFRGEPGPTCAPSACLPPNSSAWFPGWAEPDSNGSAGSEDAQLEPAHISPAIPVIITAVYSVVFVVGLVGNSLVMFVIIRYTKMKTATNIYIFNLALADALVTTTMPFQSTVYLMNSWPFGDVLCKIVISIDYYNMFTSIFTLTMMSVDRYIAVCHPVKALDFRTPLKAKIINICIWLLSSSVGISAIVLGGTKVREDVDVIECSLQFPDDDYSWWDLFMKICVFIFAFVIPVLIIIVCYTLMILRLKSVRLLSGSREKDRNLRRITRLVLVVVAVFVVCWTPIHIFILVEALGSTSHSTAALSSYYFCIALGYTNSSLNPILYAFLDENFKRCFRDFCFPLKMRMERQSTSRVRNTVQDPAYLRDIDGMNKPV

T1 sequence (P32300 whole entry, looked up): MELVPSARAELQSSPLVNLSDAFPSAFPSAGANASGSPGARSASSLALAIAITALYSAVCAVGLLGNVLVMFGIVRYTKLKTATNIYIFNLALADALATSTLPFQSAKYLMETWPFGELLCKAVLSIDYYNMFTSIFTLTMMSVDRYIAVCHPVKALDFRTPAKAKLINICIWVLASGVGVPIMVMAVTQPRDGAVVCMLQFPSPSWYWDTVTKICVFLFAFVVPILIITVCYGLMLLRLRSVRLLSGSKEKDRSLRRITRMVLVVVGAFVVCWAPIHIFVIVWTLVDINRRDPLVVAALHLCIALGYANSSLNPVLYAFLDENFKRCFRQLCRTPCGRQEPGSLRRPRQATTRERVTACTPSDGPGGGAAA
T1 sequence (P33534 whole entry, looked up): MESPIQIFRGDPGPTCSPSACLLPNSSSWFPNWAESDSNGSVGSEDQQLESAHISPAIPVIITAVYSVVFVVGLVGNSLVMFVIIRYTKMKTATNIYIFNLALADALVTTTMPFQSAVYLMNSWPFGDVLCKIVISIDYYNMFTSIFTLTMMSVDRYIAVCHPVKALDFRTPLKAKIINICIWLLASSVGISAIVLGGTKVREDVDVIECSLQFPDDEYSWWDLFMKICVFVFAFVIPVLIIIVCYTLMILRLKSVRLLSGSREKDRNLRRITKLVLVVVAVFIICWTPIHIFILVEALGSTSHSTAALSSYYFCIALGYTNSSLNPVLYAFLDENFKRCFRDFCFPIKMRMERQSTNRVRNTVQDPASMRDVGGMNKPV
T1 sequence (P42866 whole entry, looked up): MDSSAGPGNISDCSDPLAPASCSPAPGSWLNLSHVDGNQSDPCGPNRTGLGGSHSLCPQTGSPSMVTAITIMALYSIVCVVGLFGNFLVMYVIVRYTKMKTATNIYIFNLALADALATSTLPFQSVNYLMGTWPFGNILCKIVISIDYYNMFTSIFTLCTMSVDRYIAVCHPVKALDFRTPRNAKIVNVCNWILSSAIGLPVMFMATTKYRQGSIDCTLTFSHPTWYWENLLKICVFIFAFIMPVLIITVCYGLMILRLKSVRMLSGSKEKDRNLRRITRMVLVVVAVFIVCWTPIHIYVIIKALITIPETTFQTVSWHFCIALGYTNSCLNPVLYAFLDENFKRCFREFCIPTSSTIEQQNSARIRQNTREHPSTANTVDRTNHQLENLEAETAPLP

| SMILES | Molar potency [1] | Relative molar potency [2] | Relative molar potency [3] | Relative molar potency [4] |
| --- | --- | --- | --- | --- |
| CCC(=O)C(c1ccccc1)(c1ccccc1)C(C)CN(C)C (single isomer, unassigned) | 2.3 | – | – | – |
| CN1CC[C@]23c4c5ccc(O)c4O[C@H]2[C@@H](O)C=C[C@H]3[C@H]1C5 [MORPHINE] | 6.5 | – | – | – |
| CCC(=O)C(c1ccccc1)(c1ccccc1)[C@@H](C)[C@@H](C)N(C)C (single isomer, unassigned) | 6.9 | – | – | – |
| CCC(=O)C(c1ccccc1)(c1ccccc1)[C@@H](C)[C@H](C)N(C)C (racemic) | – | inactive | inactive | inactive |
| CCC(=O)C(c1ccccc1)(c1ccccc1)[C@H](C)[C@H](C)N(C)C (single isomer, unassigned) | 1.7 | – | – | – |

— ChEMBL document CHEMBL1122074 (1982)
